Assay results published in patent US20130102009A1, “SIRTUIN ACTIVATORS AND ACTIVATION ASSAYS” (priority 2010, published 2013).
“And” between values parts separate entries of the source, which are not always exact repeats. Identical values can stand only once. Like-named read-outs stand apart in the source and are kept apart here.

How the values were obtained:
[1] = molecular target: Ac-Arg-His-Lys-Lys^Ac-NH2; experiment: ITC binding of STACs to Ac-Arg-His-Lys-Lys^Ac-X, X=NH2; conditions: 10% DMSO for SRT1720, SRT2183 and 10, no cosolvent for SRT1460
Procedure: (§1) ITC experiments were performed using either a VP-ITC system or iTC200 system (MicroCal) at 26° C. in a buffer composed of 137 mM NaCl, 2.7 mM KCl, 1 mM MgCl2, 2 mM TCEP, 5% (v/v) glycerol and 50 mM HEPES-NaOH, pH 7.3. SIRT1(183-664) was purified and dialyzed against the buffer, centrifuged, and degassed before the experiment. The peptide and compounds were dissolved in the final dialysis buffer and their pH values were adjusted to match that of the protein solution. […] To characterize this interaction using the iTC200 system, 1 mM TAMRA-peptide was injected in 20 aliquots of 2 μL, (except the first injection, which was 0.5 μL) into a 0.202 mL sample cell containing 100 μM STAC. For STACs with poor solubility, the concentrations were adjusted accordingly. […] In all cases, data was corrected for the heat of dilution and fitted using a nonlinear least-squares routine using a single-site binding model with Origin for ITC v7.0383 (Microcal) with the stoichiometry (n), the enthalpy of the reaction (ΔH) and the association constant (Ka) calculated. Table 2 summarizes Kd values for the binding of STACs to […]. Note that except for SRT1460, the solubility of the compounds required that these ITC experiments be done in solutions containing 10% DMSO.

[2] = molecular target: Ac-Arg-His-Lys-Lys^Ac-AMC; experiment: ITC binding of STACs to Ac-Arg-His-Lys-Lys^Ac-X, X=AMC; conditions: 10% DMSO for SRT1720, SRT2183 and 10, no cosolvent for SRT1460
Procedure: as §1

SIRT1 = molecular target: T1, SIRT1 (Homo sapiens, UniProt Q96EB6); experiment: Fits of SIRT1 activation data (TAMRA-peptide) to kinetic models: Michaelis-Menten, eq (5), eq (9); type: biochemical; conditions: for Vmax,app: data of Milne et al. fit to Michaelis-Menten equation
T1 sequence (Q96EB6 1-747): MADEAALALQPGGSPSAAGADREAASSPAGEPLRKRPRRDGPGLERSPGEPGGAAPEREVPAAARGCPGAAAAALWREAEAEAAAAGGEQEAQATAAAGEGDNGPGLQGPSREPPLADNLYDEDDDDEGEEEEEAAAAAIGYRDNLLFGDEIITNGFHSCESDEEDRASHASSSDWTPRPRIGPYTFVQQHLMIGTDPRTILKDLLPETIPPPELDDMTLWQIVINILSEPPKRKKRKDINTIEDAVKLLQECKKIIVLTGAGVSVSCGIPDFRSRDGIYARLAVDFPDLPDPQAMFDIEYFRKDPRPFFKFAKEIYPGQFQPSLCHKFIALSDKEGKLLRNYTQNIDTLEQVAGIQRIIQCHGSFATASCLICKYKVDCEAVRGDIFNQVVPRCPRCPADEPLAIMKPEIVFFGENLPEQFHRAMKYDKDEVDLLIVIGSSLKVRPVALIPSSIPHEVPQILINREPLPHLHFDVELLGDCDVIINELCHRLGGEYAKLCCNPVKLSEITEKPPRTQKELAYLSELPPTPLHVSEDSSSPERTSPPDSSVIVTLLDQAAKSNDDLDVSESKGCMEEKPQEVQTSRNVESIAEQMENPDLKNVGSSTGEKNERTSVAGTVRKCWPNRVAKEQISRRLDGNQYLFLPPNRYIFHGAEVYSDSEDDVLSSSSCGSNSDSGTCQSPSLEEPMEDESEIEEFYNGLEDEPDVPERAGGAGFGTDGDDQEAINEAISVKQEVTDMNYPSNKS
Description: The rate law for the mechanism of FIG. 2A can be derived starting with the expression of eq (4), which was derived using the rapid equilibrium assumption. To express the rate law in terms of total and free substrate, eq (4) can be […] show in eq (5). This derivation will be complete if we can express [S] in terms of [S]o, [X]o, and Kd. This starts with the definition of Kd, given in eq (6): The rate law for the mechanism of FIG. 2B can be derived using the rapid equilibrium assumption and is given in eq (9). […] To determine if the mechanism of FIG. 2A could accommodate such an activator, we fit the activation titration curve reported in Milne et al. ((2007) Nature 450, 712-716) to the expression of eq (5). This curve is reproduced in FIG. 7A. […] In this fitting, the following constraints were used: […] If the mechanism of FIG. 2A obtains for SRT1460, parameter estimates from the two types of experiment must be the same. […] Enzyme allostery can account for the activation of the SIRT1-Catalyzed deacetylation of TAMRA-Peptide by SRT1460 When the rate law for the allosteric mechanism of activation, is used to fit the data of FIG. 7B the following best-fit parameters are obtained: Kx=8.7±0.8 μM, β=0.26±0.02, and γ=1.48±0.04. The lines drawn using eq (9) and these parameters show an excellent fit to the data. These lines superimpose on those drawn from the individual fits and the parameter estimates of Table 5.

Structure (SMILES)	Kd [1] [µM]	Kd [2] [µM]	γ, best fit of activator titration curve to eq (5) (indirect mechanism of FIG. 2A) (SIRT1; [S]o and Km constrained)	γ, global fit of velocity vs substrate data at fixed activator concentrations (FIG. 7B) to eq (5) (SIRT1; Kd assigned 140 μM, data of Milne et al.)	Km (SIRT1; Kd assigned 140 μM, data of Milne et al., read-out: Km,x, global fit of velocity vs substrate data at fixed activator concentrations (FIG. 7B) to eq (5)) [µM]	Km (SIRT1; Kd, [S]o and Km constrained, read-out: Km,x, best fit of activator titration curve to eq (5) (indirect mechanism of FIG. 2A)) [µM]	Vmax,app (SIRT1; [SRT1460] 3 μM) [units]	Vmax,app (SIRT1; [SRT1460] 11 μM) [units]	Vmax,app (SIRT1; [SRT1460] 37 μM) [units]	Km (SIRT1; [S]o and Km constrained, read-out: Km,x, best fit of activator titration curve to eq (5) (indirect mechanism of FIG. 2A)) [µM]	Kx, best fit of FIG. 7B data to allosteric rate law eq (9) (SIRT1; data of Milne et al.) [µM]	β, best fit of FIG. 7B data to allosteric rate law eq (9) (SIRT1; data of Milne et al.)	γ, best fit of FIG. 7B data to allosteric rate law eq (9) (SIRT1; data of Milne et al.)
CCCCc1nc(NC2CCNCC2)cc(C(=O)Nc2ccccc2-c2nc3cc(COC4CCNCC4)cnc3s2)n1 [Compound 10, 2-butyl-6-(piperidin-4-ylamino)-N-(2-(6-((piperidin-4-yloxy)methyl)thiazolo[5,4-b]pyridin-2-yl)phenyl)pyrimidine-4-carboxamide]	> 500	> 500	0.69±0.08	–	–	–	–	–	–	–	–	–	–
COc1cc(C(=O)Nc2ccccc2-c2cn3c(CN4CCNCC4)csc3n2)cc(OC)c1OC [SRT1460]	> 500	> 500	0.20 and 0.20 ± 0.01	1.53±0.07 and 1.53	1 ± 0.1	0.09	11	12	14	0.09	8.7 ± 0.8	0.26±0.02	1.48±0.04
